In patent US6358885B1, “Substituted phenylheterocyclic herbicides” (Mississippi State University, priority 1992, dated 2002):

Tests used:
Assay in all cases: Test G preemergence/postemergence greenhouse plant response rating 0 to 100
alfalfa = format: in vivo, Medicago ativa; settings: 0 to 100 scale
How it was run: (§1)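 Pre- and postemergence treatments used compound in non-phytotoxic solvent on potted greenhouse plants grown from seed, rhizome or plant part. Postemergence plants were at the 2–4 leaf stage; damage was assessed by eye versus untreated pots after 13–21 days.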

annual bluegrass = format: in vivo, Poa annua; settings: 0 to 100 scale
How it was run: as §1

bermudagrass = format: in vivo, Cynodon dactylon; settings: 0 to 100 scale
How it was run: as §1

broadleaf signalgrass = format: in vivo, Brachiaria plantaginea; settings: 0 to 100 scale
How it was run: as §1

common purslane = format: in vivo, Portulaca oleracea; settings: 0 to 100 scale
How it was run: as §1

common ragweed = format: in vivo, Ambrosia elatior; settings: 0 to 100 scale
How it was run: as §1

dallisgrass = format: in vivo, Paspalum dilatatum; settings: 0 to 100 scale
How it was run: as §1

goosegrass = format: in vivo, Eleusine indica; settings: 0 to 100 scale
How it was run: as §1

guineagrass = format: in vivo, Panicum maximum; settings: 0 to 100 scale
How it was run: as §1

itchgrass = format: in vivo, Rottboellia exaltata; settings: 0 to 100 scale
How it was run: as §1

johnsongrass = format: in vivo, Sorghum halepense; settings: 0 to 100 scale
How it was run: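 Visual injury scores, taken 13–21 d after spraying and judged against untreated pots; dash = not tested. Single-species greenhouse pots; test chemical dissolved in non-phytotoxic solvent. Pre: applied ≤1 d post-planting.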

large crabgrass = format: in vivo, Digitaria sanguinalis; settings: 0 to 100 scale
How it was run: as §1

peanut = format: in vivo, Arachis hypoagaea; settings: 0 to 100 scale
How it was run: as §1

pitted morningglory = format: in vivo, Ipomoea lacunosa; settings: 0 to 100 scale
How it was run: as §1

purple nutsedge = format: in vivo, Cyperus rotundus; settings: Rate 125 g/ha, 0 to 100 scale
How it was run: as §1

smooth crabgrass = format: in vivo, Digitaria ischaemum; settings: 0 to 100 scale
How it was run: as §1

yellow nutsedge = format: in vivo, Cyperus esculentus; settings: Rate 125 g/ha, 0 to 100 scale
How it was run: as §1

## CC(C)N1C(=O)COc2cc(F)c(-c3nn4c(c3Cl)CCCC4)cc21 [Compound 31]
alfalfa; POSTEMERGENCE, Rate 125 g/ha
  Plant response rating, Alfalfa Var.: 0
alfalfa; POSTEMERGENCE, Rate 250 g/ha
  Plant response rating, Alfalfa Var.: 10
alfalfa; PREEMERGENCE, Rate 125 g/ha
  Plant response rating, Alfalfa Var.: 0
alfalfa; PREEMERGENCE, Rate 250 g/ha
  Plant response rating, Alfalfa Var.: 30
Annual bluegrass; POSTEMERGENCE, Rate 125 g/ha
  Plant response rating, Ann Bluegrass: 0
Annual bluegrass; POSTEMERGENCE, Rate 250 g/ha
  Plant response rating, Ann Bluegrass: 0
Annual bluegrass; PREEMERGENCE, Rate 125 g/ha
  Plant response rating, Ann Bluegrass: 0
Annual bluegrass; PREEMERGENCE, Rate 250 g/ha
  Plant response rating, Ann Bluegrass: 0
bermudagrass; POSTEMERGENCE, Rate 125 g/ha
  Plant response rating, Bermudagrass: 0
bermudagrass; POSTEMERGENCE, Rate 250 g/ha
  Plant response rating, Bermudagrass: 0
bermudagrass; PREEMERGENCE, Rate 125 g/ha
  Plant response rating, Bermudagrass: 0
bermudagrass; PREEMERGENCE, Rate 250 g/ha
  Plant response rating, Bermudagrass: 0
Broadleaf signalgrass; POSTEMERGENCE, Rate 125 g/ha
  Plant response rating, Brdlf Sgnlgrass: 0
Broadleaf signalgrass; POSTEMERGENCE, Rate 250 g/ha
  Plant response rating, Brdlf Sgnlgrass: 0
Broadleaf signalgrass; PREEMERGENCE, Rate 125 g/ha
  Plant response rating, Brdlf Sgnlgrass: 0
Broadleaf signalgrass; PREEMERGENCE, Rate 250 g/ha
  Plant response rating, Brdlf Sgnlgrass: 0
Common purslane; POSTEMERGENCE, Rate 125 g/ha
  Plant response rating, Cmn Purslane: 100
Common purslane; POSTEMERGENCE, Rate 250 g/ha
  Plant response rating, Cmn Purslane: 80
Common purslane; PREEMERGENCE, Rate 125 g/ha
  Plant response rating, Cmn Purslane: 0
Common purslane; PREEMERGENCE, Rate 250 g/ha
  Plant response rating, Cmn Purslane: 100
Common ragweed; POSTEMERGENCE, Rate 125 g/ha
  Plant response rating, Cmn Ragweed: 100
Common ragweed; POSTEMERGENCE, Rate 250 g/ha
  Plant response rating, Cmn Ragweed: 100
Common ragweed; PREEMERGENCE, Rate 125 g/ha
  Plant response rating, Cmn Ragweed: 0
Common ragweed; PREEMERGENCE, Rate 250 g/ha
  Plant response rating, Cmn Ragweed: 70
dallisgrass; POSTEMERGENCE, Rate 125 g/ha
  Plant response rating, Dallisgrass: 0
dallisgrass; POSTEMERGENCE, Rate 250 g/ha
  Plant response rating, Dallisgrass: 0
dallisgrass; PREEMERGENCE, Rate 125 g/ha
  Plant response rating, Dallisgrass: 0
dallisgrass; PREEMERGENCE, Rate 250 g/ha
  Plant response rating, Dallisgrass: 0
goosegrass; POSTEMERGENCE, Rate 125 g/ha
  Plant response rating, Goosegrass: 0
goosegrass; POSTEMERGENCE, Rate 250 g/ha
  Plant response rating, Goosegrass: 0
goosegrass; PREEMERGENCE, Rate 125 g/ha
  Plant response rating, Goosegrass: 0
goosegrass; PREEMERGENCE, Rate 250 g/ha
  Plant response rating, Goosegrass: 0
guineagrass; POSTEMERGENCE, Rate 125 g/ha
  Plant response rating, Guineagrass: 0
guineagrass; POSTEMERGENCE, Rate 250 g/ha
  Plant response rating, Guineagrass: 0
guineagrass; PREEMERGENCE, Rate 125 g/ha
  Plant response rating, Guineagrass: 0
guineagrass; PREEMERGENCE, Rate 250 g/ha
  Plant response rating, Guineagrass: 100
itchgrass; POSTEMERGENCE, Rate 125 g/ha
  Plant response rating, Itchgrass: 0
itchgrass; POSTEMERGENCE, Rate 250 g/ha
  Plant response rating, Itchgrass: 20
itchgrass; PREEMERGENCE, Rate 125 g/ha
  Plant response rating, Itchgrass: 0
itchgrass; PREEMERGENCE, Rate 250 g/ha
  Plant response rating, Itchgrass: 70
johnsongrass; POSTEMERGENCE, Rate 125 g/ha
  Plant response rating, Johnsongrass: 0
johnsongrass; POSTEMERGENCE, Rate 250 g/ha
  Plant response rating, Johnsongrass: 0
johnsongrass; PREEMERGENCE, Rate 125 g/ha
  Plant response rating, Johnsongrass: 0
johnsongrass; PREEMERGENCE, Rate 250 g/ha
  Plant response rating, Johnsongrass: 0
Large crabgrass; POSTEMERGENCE, Rate 125 g/ha
  Plant response rating, Large Crabgrass: 0
Large crabgrass; POSTEMERGENCE, Rate 250 g/ha
  Plant response rating, Large Crabgrass: 0
Large crabgrass; PREEMERGENCE, Rate 125 g/ha
  Plant response rating, Large Crabgrass: 0
Large crabgrass; PREEMERGENCE, Rate 250 g/ha
  Plant response rating, Large Crabgrass: 0
peanut; POSTEMERGENCE, Rate 125 g/ha
  Plant response rating, Peanuts: 0
peanut; POSTEMERGENCE, Rate 250 g/ha
  Plant response rating, Peanuts: 0
peanut; PREEMERGENCE, Rate 125 g/ha
  Plant response rating, Peanuts: 0
peanut; PREEMERGENCE, Rate 250 g/ha
  Plant response rating, Peanuts: 0
Pitted morningglory; POSTEMERGENCE, Rate 125 g/ha
  Plant response rating, Pit Morninglory: 50
Pitted morningglory; POSTEMERGENCE, Rate 250 g/ha
  Plant response rating, Pit Morninglory: 50
Pitted morningglory; PREEMERGENCE, Rate 125 g/ha
  Plant response rating, Pit Morninglory: 0
Pitted morningglory; PREEMERGENCE, Rate 250 g/ha
  Plant response rating, Pit Morninglory: 0
Purple nutsedge; POSTEMERGENCE
  Plant response rating, Purple Nutsedge: 10
Purple nutsedge; PREEMERGENCE
  Plant response rating, Purple Nutsedge: 0
Smooth crabgrass; POSTEMERGENCE, Rate 125 g/ha
  Plant response rating, Smooth Crabgras: 0
Smooth crabgrass; POSTEMERGENCE, Rate 250 g/ha
  Plant response rating, Smooth Crabgras: 0
Smooth crabgrass; PREEMERGENCE, Rate 125 g/ha
  Plant response rating, Smooth Crabgras: 0
Smooth crabgrass; PREEMERGENCE, Rate 250 g/ha
  Plant response rating, Smooth Crabgras: 0
Yellow nutsedge; POSTEMERGENCE
  Plant response rating, Yellow Nutsedge: 0
Yellow nutsedge; PREEMERGENCE
  Plant response rating, Yellow Nutsedge: 0
